Drawing on ChEMBL document CHEMBL1139064, “Carbonic anhydrase activators: an activation study of the human mitochondrial isoforms VA and VB with amino acids and amines” (Bioorg Med Chem Lett, 2007), this text covers KA for 15 molecules.

The target in test [1] is Carbonic anhydrase 5A, mitochondrial (Homo sapiens) (UniProt P35218). The test can be described thus: Activation of human recombinant carbonic anhydrase 5A by stopped-flow CO2 hydrase method.
Test [2] has as its target Carbonic anhydrase 5B, mitochondrial (Homo sapiens) (UniProt Q9Y2D0). Briefly: Activation of human recombinant carbonic anhydrase 5B by stopped-flow CO2 hydrase method.

Structures are written as SMILES.

Carbonic anhydrase 5B, mitochondrial (Homo sapiens), sequence (Q9Y2D0 whole entry): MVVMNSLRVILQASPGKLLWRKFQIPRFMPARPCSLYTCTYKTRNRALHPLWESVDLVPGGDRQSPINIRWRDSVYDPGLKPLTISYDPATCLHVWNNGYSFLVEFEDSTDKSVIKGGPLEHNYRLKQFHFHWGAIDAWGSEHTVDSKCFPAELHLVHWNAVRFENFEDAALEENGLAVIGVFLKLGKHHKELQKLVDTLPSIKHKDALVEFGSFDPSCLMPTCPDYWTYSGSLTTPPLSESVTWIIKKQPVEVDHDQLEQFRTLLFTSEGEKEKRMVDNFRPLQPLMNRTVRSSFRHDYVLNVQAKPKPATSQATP
Carbonic anhydrase 5A, mitochondrial (Homo sapiens), sequence (P35218 whole entry): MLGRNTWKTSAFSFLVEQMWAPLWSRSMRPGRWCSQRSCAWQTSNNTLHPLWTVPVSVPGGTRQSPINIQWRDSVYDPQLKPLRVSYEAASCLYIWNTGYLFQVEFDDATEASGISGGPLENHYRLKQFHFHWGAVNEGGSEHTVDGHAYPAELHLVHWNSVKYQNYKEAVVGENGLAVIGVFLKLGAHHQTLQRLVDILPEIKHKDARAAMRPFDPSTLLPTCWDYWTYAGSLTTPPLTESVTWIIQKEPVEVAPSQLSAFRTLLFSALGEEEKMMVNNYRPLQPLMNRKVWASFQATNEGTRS

Regarding `N[C@H](Cc1ccc(O)c(O)c1)C(=O)O`, the KA is 4.59 µM in test [1] and 3.71 µM in test [2].
As for `Nc1ccc(C[C@H](N)C(=O)O)cc1`, the KA in test [1] came to 2.76 µM; in test [2], 2.17 µM.
In the case of `N[C@@H](Cc1ccc(O)cc1)C(=O)O`, the figures for the KA in test [1] and in test [2] were 2.45 µM and 0.044 µM, respectively.
For the molecule `NCCc1c[nH]c2ccc(O)cc12`, the KA in test [1] worked out at 6.33 µM; in test [2], 0.11 µM.
`NCCN1CCOCC1`: the KA in test [1] stood at 0.089 µM; in test [2], 1.15 µM.
For `NCCc1c[nH]cn1`, the KA in test [1] turned out to be 0.01 µM; in test [2], 3.52 µM.
On the same counts, the results for `N[C@H](Cc1c[nH]c2ccccc12)C(=O)O` are 1.24 µM and 1.35 µM.
On the same counts, the results for `N[C@@H](Cc1c[nH]cn1)C(=O)O` are 1.34 µM and 0.97 µM.
The matching figures for `N[C@@H](Cc1c[nH]c2ccccc12)C(=O)O`: 1.13 µM and 0.89 µM.
On to `NCc1ccccn1`, for which the figures for the KA in test [1] and in test [2] were 23.6 µM and 0.24 µM, respectively.
`NCCN1CCNCC1`: the KA is 6.04 µM in test [1] and 0.91 µM in test [2].
In the case of `N[C@@H](Cc1ccc(O)c(O)c1)C(=O)O`, the KA was 0.036 µM in test [1] and 0.063 µM in test [2].
Turning to `NCCc1ccc(O)c(O)c1`, the results for the KA in test [1] and in test [2] were 0.13 µM and 7.85 µM, respectively.
As for `N[C@H](Cc1c[nH]cn1)C(=O)O`, the KA amounted to 0.12 µM in test [1] and 4.38 µM in test [2].
Take `NCCc1ccccn1`: the results for the KA in test [1] and in test [2] were 7.62 µM and 0.094 µM, respectively.
